From ChEMBL document CHEMBL1128534, “Cyclic lactam alpha-melanotropin analogues of Ac-Nle4-cyclo[Asp5, D-Phe7,Lys10] alpha-melanocyte-stimulating hormone-(4-10)-NH2 with bulky aromatic amino acids at position 7 show high antagonist potency and selectivity at specific melanocortin receptors” (J Med Chem, 1995) come the findings set out here.

The term EC50 denotes the concentration that produces a half-maximal response. High values mean a less potent agent, low ones a more potent agent.

What all share (type): functional
The target of assay [1] is Melanocyte-stimulating hormone receptor (Mus musculus, UniProt Q01727).
Melanocyte-stimulating hormone receptor (Mus musculus, UniProt Q01727), sequence (Q01727 whole entry): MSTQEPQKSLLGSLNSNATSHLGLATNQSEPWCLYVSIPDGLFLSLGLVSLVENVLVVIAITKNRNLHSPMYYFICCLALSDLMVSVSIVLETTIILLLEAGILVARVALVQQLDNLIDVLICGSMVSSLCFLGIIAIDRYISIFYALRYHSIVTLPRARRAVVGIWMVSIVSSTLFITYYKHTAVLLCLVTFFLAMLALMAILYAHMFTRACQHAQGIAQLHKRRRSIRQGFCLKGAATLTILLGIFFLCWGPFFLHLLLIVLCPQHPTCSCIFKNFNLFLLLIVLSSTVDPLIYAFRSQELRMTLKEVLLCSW
In assay [2] the target is T1, Melanocyte-stimulating hormone receptor (Homo sapiens, UniProt Q01726). Put plainly: Evaluated for agonist at […] frog (Rana pipiens) skin assay.
T1 sequence (Q01726 whole entry): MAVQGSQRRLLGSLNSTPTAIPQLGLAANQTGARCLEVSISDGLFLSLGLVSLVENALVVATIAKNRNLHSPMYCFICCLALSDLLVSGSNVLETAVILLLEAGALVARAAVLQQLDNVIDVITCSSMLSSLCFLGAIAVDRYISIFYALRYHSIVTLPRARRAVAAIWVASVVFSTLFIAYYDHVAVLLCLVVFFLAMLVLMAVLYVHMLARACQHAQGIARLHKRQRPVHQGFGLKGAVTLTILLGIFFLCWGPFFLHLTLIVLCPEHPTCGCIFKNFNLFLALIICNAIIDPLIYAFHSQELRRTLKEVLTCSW
Assay [3] concerns the target T1, Melanocyte-stimulating hormone receptor.

On to `CCCC[C@H](NC(C)=O)C(=O)N[C@H]1CC(=O)NCCCC[C@@H](C(N)=O)NC(=O)[C@H](Cc2c[nH]c3ccccc23)NC(=O)[C@H](CCCNC(=N)N)NC(=O)[C@@H](Cc2ccc(Cl)cc2)NC(=O)[C@H](Cc2cnc[nH]2)NC1=O`, for which the figures for the concentration for a half-maximal effect (EC50) in assay [1], in assay [2] and in assay [3] were 9.5 pM, 2000 pM and 5 pM, respectively.
Take `CCCC[C@H](NC(C)=O)C(=O)N[C@H]1CC(=O)NCCCC[C@@H](C(N)=O)NC(=O)[C@H](Cc2c[nH]c3ccccc23)NC(=O)[C@H](CCCN=C(N)N)NC(=O)[C@@H](Cc2ccc(I)cc2)NC(=O)[C@H](Cc2c[nH]cn2)NC1=O`: the concentration giving a half-maximal response (EC50) in assay [1] came out at 190 pM; in assay [3], 55 pM.
Regarding `CCCC[C@H](NC(C)=O)C(=O)N[C@H]1CC(=O)NCCCC[C@@H](C(N)=O)NC(=O)[C@H](Cc2c[nH]c3ccccc23)NC(=O)[C@H](CCCNC(=N)N)NC(=O)[C@@H](Cc2ccc3ccccc3c2)NC(=O)[C@H](Cc2c[nH]cn2)NC1=O`, in assay [1], the half-maximal effective concentration (EC50) was 39 pM.
On to `CCCC[C@H](NC(C)=O)C(=O)N[C@H]1CC(=O)NCCCC[C@@H](C(N)=O)NC(=O)[C@H](Cc2c[nH]c3ccccc23)NC(=O)[C@H](CCCN=C(N)N)NC(=O)[C@@H](Cc2ccc(F)cc2)NC(=O)[C@H](Cc2c[nH]cn2)NC1=O`, for which the EC50 in assay [1] stood at 26 pM; in assay [2] it was 100 pM; in assay [3] it was 16 pM.
